Positions of bridges follow the written chain, without caps; N, C: chain ends. Non-standard residues stand in square brackets, D forms with d. Residues, ends and D or L forms follow the SMILES beside them. ξ: configuration not given here. *: point of attachment. Ala(4-thiazolyl) = N[C@@H](Cc1cscn1)C(=O)O; Tyr(3-F) = N[C@@H](Cc1ccc(O)c(F)c1)C(=O)O; NMeF = CN[C@@H](Cc1ccccc1)C(=O)O; NMeI = CC[C@H](C)[C@H](NC)C(=O)O; AllylGly = C=CC[C@H](N)C(=O)O; NMeL = CN[C@@H](CC(C)C)C(=O)O; NMeV = CN[C@H](C(=O)O)C(C)C; Pip = O=C(O)[C@@H]1CCCCN1; NMeA = CN[C@@H](C)C(=O)O; Piperidide = C1CCN(*)CC1; ξF = NC(Cc1ccccc1)C(=O)O; Aze = O=C(O)[C@@H]1CCN1; Sar = CNCC(=O)O; tBu = CC(C)(C)*
assay: Metabolic stability in human hepatic microsome; type: in vitro ADME; details: human, microsomes, pH 7.4, CL NADPH(+)

SMILES | microsomal CLint at 1 uM
CC[C@H](C)[C@@H]1NC(=O)[C@@H]2CCCN2C(=O)CNC(=O)[C@H](COC(C)(C)C)NC(=O)[C@H](CC(C)C)N(C)C(=O)C(Cc2ccccc2)NC(=O)CN(C)C(=O)C[C@@H](C(=O)N2CCCCC2)NC(=O)[C@H](CC(C)C)N(C)C(=O)[C@H](Cc2ccccc2)NC(=O)[C@H]([C@@H](C)O)NC(=O)[C@H](C)N(C)C1=O (stereo partly drawn) [DP-517] ([Sar][ξF][NMeL]S(tBu)GPI[NMeA]TF[NMeL]D-Piperidide; lactam N-12) | 31 µL/min/mg

same assay, conditions: microsomes, pH 7.4; human hepatic microsome, NADPH(+); read-out: CL NADPH(+)

SMILES | microsomal CLint at 1 uM
CC[C@H](C)[C@@H]1NC(=O)[C@H](C)N(C)C(=O)CN(C)C(=O)C[C@@H](C(=O)N2CCCCC2)NC(=O)[C@H](CC(C)C)N(C)C(=O)[C@H](C)N(C)C(=O)[C@H](Cc2ccccc2)N(C)C(=O)[C@H]([C@@H](C)O)NC(=O)[C@H](Cc2ccccc2)N(C)C(=O)[C@H](CC(C)C)N(C)C1=O [DP-519] ([Sar][NMeA]I[NMeL][NMeF]T[NMeF][NMeA][NMeL]D-Piperidide; lactam N-10) | 157 µL/min/mg
CC(C)C[C@@H]1NC(=O)[C@H](CC(C)C)NC(=O)[C@H](C)N(C)C(=O)C[C@@H](C(=O)N2CCCCC2)NC(=O)[C@H](C(C)C)N(C)C(=O)[C@H](CC(C)C)NC(=O)[C@H](Cc2ccccc2)NC(=O)[C@H]([C@@H](C)O)NC(=O)[C@@H]2CCN2C(=O)[C@H](CC(C)C)NC(=O)[C@H](C)NC1=O [DP-548] ([NMeA]LLAL[Aze]TFL[NMeV]D-Piperidide; lactam N-11) | 16 µL/min/mg
CC[C@H](C)[C@H]1C(=O)NCC(=O)N(C)[C@@H](CC(C)C)C(=O)N[C@@H]([C@@H](C)O)C(=O)N2CCC[C@H]2C(=O)N[C@@H](Cc2ccccc2)C(=O)N[C@H](C(=O)N2CCCCC2)CC(=O)N2CC[C@H]2C(=O)N[C@@H](Cc2ccccc2)C(=O)N(C)[C@@H](CC(C)C)C(=O)N[C@@H](CC(C)C)C(=O)N1C [DP-550] ([Aze]F[NMeL]L[NMeI]G[NMeL]TPFD-Piperidide; lactam N-11) | 108 µL/min/mg
CC[C@H](C)[C@H]1C(=O)NCC(=O)N(C)[C@@H](CC(C)C)C(=O)N[C@@H]([C@@H](C)O)C(=O)N2CCC[C@H]2C(=O)N[C@@H](Cc2ccccc2)C(=O)N[C@H](C(=O)N2CCCCC2)CC(=O)N(C)[C@@H](C)C(=O)N[C@@H](Cc2ccccc2)C(=O)N2CC[C@H]2C(=O)N[C@@H](CC(C)C)C(=O)N1C [DP-552] ([NMeA]F[Aze]L[NMeI]G[NMeL]TPFD-Piperidide; lactam N-11) | 157 µL/min/mg
CC[C@H](C)[C@H]1C(=O)NCC(=O)N(C)[C@@H](CC(C)C)C(=O)N[C@@H]([C@@H](C)O)C(=O)N2CCC[C@H]2C(=O)N[C@@H](Cc2ccccc2)C(=O)N[C@H](C(=O)N2CCCCC2)CC(=O)N(C)[C@@H](C)C(=O)N[C@@H](Cc2ccccc2)C(=O)N2CCCC[C@H]2C(=O)N[C@@H](CC(C)C)C(=O)N1C [DP-553] ([NMeA]F[Pip]L[NMeI]G[NMeL]TPFD-Piperidide; lactam N-11) | 106 µL/min/mg
CC(C)C[C@@H]1NC(=O)[C@H](CC(C)C)N(C)C(=O)[C@H](Cc2ccccc2)NC(=O)[C@H](C)N(C)C(=O)C[C@@H](C(=O)N2CCCCC2)NC(=O)[C@H](Cc2ccccc2)NC(=O)[C@@H]2CCCN2C(=O)[C@H]([C@@H](C)O)NC(=O)[C@H](CC(C)C)N(C)C(=O)CNC(=O)[C@@H]2CCN2C1=O [DP-554] ([NMeA]F[NMeL]L[Aze]G[NMeL]TPFD-Piperidide; lactam N-11) | 80 µL/min/mg
CC(C)C[C@@H]1NC(=O)[C@H](CC(C)C)N(C)C(=O)[C@H](Cc2ccccc2)NC(=O)[C@H](C)N(C)C(=O)C[C@@H](C(=O)N2CCCCC2)NC(=O)[C@H](Cc2ccccc2)NC(=O)[C@@H]2CCCN2C(=O)[C@H]([C@@H](C)O)NC(=O)[C@H](CC(C)C)N(C)C(=O)CNC(=O)[C@@H]2CCCCN2C1=O [DP-555] ([NMeA]F[NMeL]L[Pip]G[NMeL]TPFD-Piperidide; lactam N-11) | 95 µL/min/mg
CC[C@H](C)[C@H]1C(=O)NCC(=O)N2CC[C@H]2C(=O)N[C@@H]([C@@H](C)O)C(=O)N2CCC[C@H]2C(=O)N[C@@H](Cc2ccccc2)C(=O)N[C@H](C(=O)N2CCCCC2)CC(=O)N(C)[C@@H](C)C(=O)N[C@@H](Cc2ccccc2)C(=O)N(C)[C@@H](CC(C)C)C(=O)N[C@@H](CC(C)C)C(=O)N1C [DP-556] ([NMeA]F[NMeL]L[NMeI]G[Aze]TPFD-Piperidide; lactam N-11) | 65 µL/min/mg
CC[C@H](C)[C@H]1C(=O)NCC(=O)N2CCCC[C@H]2C(=O)N[C@@H]([C@@H](C)O)C(=O)N2CCC[C@H]2C(=O)N[C@@H](Cc2ccccc2)C(=O)N[C@H](C(=O)N2CCCCC2)CC(=O)N(C)[C@@H](C)C(=O)N[C@@H](Cc2ccccc2)C(=O)N(C)[C@@H](CC(C)C)C(=O)N[C@@H](CC(C)C)C(=O)N1C [DP-557] ([NMeA]F[NMeL]L[NMeI]G[Pip]TPFD-Piperidide; lactam N-11) | 96 µL/min/mg
CC[C@H](C)[C@H]1C(=O)NCC(=O)N(C)[C@@H](CC(C)C)C(=O)N[C@@H]([C@@H](C)O)C(=O)N2CC[C@H]2C(=O)N[C@@H](Cc2ccccc2)C(=O)N[C@H](C(=O)N2CCCCC2)CC(=O)N(C)[C@@H](C)C(=O)N[C@@H](Cc2ccccc2)C(=O)N(C)[C@@H](CC(C)C)C(=O)N[C@@H](CC(C)C)C(=O)N1C [DP-558] ([NMeA]F[NMeL]L[NMeI]G[NMeL]T[Aze]FD-Piperidide; lactam N-11) | 133 µL/min/mg
CC[C@H](C)[C@H]1C(=O)NCC(=O)N(C)[C@@H](CC(C)C)C(=O)N[C@@H]([C@@H](C)O)C(=O)N2CCCC[C@H]2C(=O)N[C@@H](Cc2ccccc2)C(=O)N[C@H](C(=O)N2CCCCC2)CC(=O)N(C)[C@@H](C)C(=O)N[C@@H](Cc2ccccc2)C(=O)N(C)[C@@H](CC(C)C)C(=O)N[C@@H](CC(C)C)C(=O)N1C [DP-559] ([NMeA]F[NMeL]L[NMeI]G[NMeL]T[Pip]FD-Piperidide; lactam N-11) | 145 µL/min/mg
CC(C)C[C@@H]1NC(=O)[C@H](CC(C)C)N(C)C(=O)[C@H](CC(C)C)N(C)C(=O)[C@H](Cc2ccccc2)NC(=O)[C@H](Cc2ccccc2)N(C)C(=O)[C@H](CCC(N)=O)NC(=O)[C@H](CC(C)C)N(C)C(=O)[C@H](Cc2ccccc2)NC(=O)[C@H](C)NC(=O)C[C@@H](C(=O)N(C)[C@@H](Cc2ccccc2)C(=O)N[C@@H](C)C(=O)N2CCCCC2)NC1=O [DP-601] (AF[NMeL]Q[NMeF]F[NMeL][NMeL]LD[NMeF]A-Piperidide; lactam N-10) | 21 µL/min/mg
CC(C)C[C@@H]1NC(=O)[C@H](CC(C)C)N(C)C(=O)[C@H](CC(C)C)N(C)C(=O)[C@H](CCC(N)=O)NC(=O)[C@H](Cc2ccccc2)N(C)C(=O)[C@H]([C@@H](C)O)NC(=O)[C@H](CC(C)C)N(C)C(=O)[C@H](Cc2ccccc2)NC(=O)[C@H](C)NC(=O)C[C@@H](C(=O)N(C)[C@@H](Cc2ccccc2)C(=O)N[C@@H](C)C(=O)N2CCCCC2)NC1=O [DP-602] (AF[NMeL]T[NMeF]Q[NMeL][NMeL]LD[NMeF]A-Piperidide; lactam N-10) | 26 µL/min/mg
CC(C)C[C@@H]1NC(=O)[C@H](CC(C)C)N(C)C(=O)[C@H](CC(C)C)N(C)C(=O)[C@H](C)NC(=O)[C@H](Cc2ccccc2)N(C)C(=O)[C@H](CCC(=O)N(C)C)NC(=O)[C@H](CC(C)C)N(C)C(=O)[C@H](Cc2ccccc2)NC(=O)[C@H](C)NC(=O)C[C@@H](C(=O)N(C)[C@@H](Cc2ccccc2)C(=O)N[C@@H](C)C(=O)N2CCCCC2)NC1=O [DP-603] (AF[NMeL]E(NMe2)[NMeF]A[NMeL][NMeL]LD[NMeF]A-Piperidide; lactam N-10) | 17 µL/min/mg
CC(C)C[C@@H]1NC(=O)[C@H](CC(C)C)N(C)C(=O)[C@H](CC(C)C)N(C)C(=O)CNC(=O)[C@H](Cc2ccccc2)N(C)C(=O)[C@H]([C@@H](C)O)NC(=O)[C@H](CC(C)C)N(C)C(=O)[C@H](Cc2ccc(O)c(F)c2)NC(=O)[C@H](C)NC(=O)C[C@@H](C(=O)N(C)[C@@H](Cc2ccccc2)C(=O)N[C@@H](C)C(=O)N2CCCCC2)NC1=O [DP-605] (A[Tyr(3-F)][NMeL]T[NMeF]G[NMeL][NMeL]LD[NMeF]A-Piperidide; lactam N-10) | 30 µL/min/mg
CC(C)C[C@@H]1NC(=O)[C@H](CC(C)C)N(C)C(=O)[C@H](C)N(C)C(=O)[C@H](Cc2ccc(O)c(F)c2)NC(=O)[C@H](Cc2ccccc2)N(C)C(=O)[C@H]([C@@H](C)O)NC(=O)[C@H](CC(C)C)N(C)C(=O)[C@H](Cc2ccccc2)NC(=O)[C@H](C)NC(=O)C[C@@H](C(=O)N(C)[C@@H](Cc2ccccc2)C(=O)N[C@@H](C)C(=O)N2CCCCC2)NC1=O [DP-606] (AF[NMeL]T[NMeF][Tyr(3-F)][NMeA][NMeL]LD[NMeF]A-Piperidide; lactam N-10) | 70 µL/min/mg
CC(C)C[C@H]1C(=O)N(C)[C@@H](CC(C)C)C(=O)N[C@@H](Cc2c[nH]c3ccccc23)C(=O)N[C@H](C(=O)N(C)[C@@H](Cc2ccccc2)C(=O)N[C@@H](C)C(=O)N2CCCCC2)CC(=O)N[C@@H](C)C(=O)N[C@@H](Cc2ccccc2)C(=O)N(C)[C@@H](CC(C)C)C(=O)N[C@@H]([C@@H](C)O)C(=O)N(C)[C@@H](Cc2ccccc2)C(=O)NCC(=O)N1C [DP-608] (AF[NMeL]T[NMeF]G[NMeL][NMeL]WD[NMeF]A-Piperidide; lactam N-10) | 13 µL/min/mg
CC(C)C[C@@H]1NC(=O)[C@H](CC(C)C)N(C)C(=O)[C@H](CC(C)C)N(C)C(=O)CNC(=O)[C@H](Cc2ccccc2)N(C)C(=O)[C@H](Cc2cscn2)NC(=O)[C@H](CC(C)C)N(C)C(=O)[C@H](Cc2ccccc2)NC(=O)[C@H](C)NC(=O)C[C@@H](C(=O)N(C)[C@@H](Cc2ccccc2)C(=O)N[C@@H](C)C(=O)N2CCCCC2)NC1=O [DP-609] (AF[NMeL][Ala(4-thiazolyl)][NMeF]G[NMeL][NMeL]LD[NMeF]A-Piperidide; lactam N-10) | 16 µL/min/mg
C=CC[C@@H]1NC(=O)[C@H](CC(C)C)N(C)C(=O)[C@H](CC(C)C)N(C)C(=O)CNC(=O)[C@H](Cc2ccccc2)N(C)C(=O)[C@H]([C@@H](C)O)NC(=O)[C@H](CC(C)C)N(C)C(=O)[C@H](Cc2ccccc2)NC(=O)[C@H](C)NC(=O)C[C@@H](C(=O)N(C)[C@@H](Cc2ccccc2)C(=O)N[C@@H](C)C(=O)N2CCCCC2)NC1=O [DP-611] (AF[NMeL]T[NMeF]G[NMeL][NMeL][AllylGly]D[NMeF]A-Piperidide; lactam N-10) | 20 µL/min/mg

Source: patent publication US9409952B2, “Peptide-compound cyclization method” (Chugai Seiyaku Kabushiki Kaisha, priority 2011, dated 2016)
